Data set [1] relates to HIV envelope gp120/41-induced syncytia formation in CD4+T cell lines (HIVenv 2-8 co-culture). Description: Inhibition of HIVenv 2-8-induced syncytia formation / cell death (HIV-1 co-culture assay). In kind it is cell-based. The note with it: for Estimated IC50 (Syncitia Quantification), inhibition of HIV-induced cytopathicity: Table 1. The method, then:
Sourcing of Ah Receptor Ligands: The Ah receptor ligands 2,3,7,8-Tetrachlorodibenzo-p-dioxin, 3,3',4,4',5-Pentachlorobiphenyl, 3,3',4,'4-Tetrachlorobiphenyl, and 2-Monochlorodibenzo-p-dioxin compounds were purchased from Accustandard (Cambridge, Mass.). α-naphthoflavone was purchased from Sigma (St. Louis, Mo.). Stock solutions of each compound were prepared by dissolution in DMSO at a 1000X concentration, i.e. the highest concentration tested was diluted by 1000-fold.
Bioassay Procedure: The cell lines utilized in the assay protocol include the following: HIVenv 2-2 (non-cytopathic), HIVenv 2-8 (cytopathic), Jurkat CD4+T cell line (clone E6-1), and SupT1. Cell lines were cultured in RPMI medium (Gibco, Grand Island, N.Y.) supplemented with L-glutamine (Sigma, St. Louis, Mo.) and 10% FBS-HI (Intergen). The Jurkat CD4+T cell line was obtained from American Type Culture Collection (Bethesda, Md.). All other cell lines were obtained from the National Institutes of Health. The HIVenv 2-2 or HIVenv 2-8 cells were plated with both CD4+T cell lines (1×10^3 cells per cell line in 16 μL of media.) in a 96-well tissue culture plate containing 50 μL of media with compound to be tested yielding a final volume of approximately 100 μL. The plates were then gently shaken to ensure adequate mixing of the assay components. Cells were then co-cultured at 5% CO2, 37C., and 95% humidity for 24 to 48 hours. The time points were chosen for the convenience, cytopathic changes become evident in the cell cultures used within a 2 to 4 hour period, becoming more and more prominent with time.
Data Reduction for this ELISA: HIVenv 2-2 co-culture ELISA values are used as the background for HIVenv 2-8 co-culture values. Dose responses are then plotted with dose along the x-axis and the background corrected optical density values on the y-axis.
Positive and Negative Controls: The use of the HIVenv 2-2 cell line serves as a negative control for induction of cytopathicity.
Interpretation of the Test: A positive response was defined as a dose-related decrease in syncytia formation in excess of 50% compared to HIVenv 2-8 co-cultures alone. Calculation of median effective doses was estimated by visual observation and by quantification of syncitia in 10X power microscope fields.
The Materials and Methods used in the testing of the various dibenzofuran compounds were the same as those used in Example 1 above. This includes the use of the same controls, cell lines, and assay procedures.
Interpretation of the Test: A positive response was defined as a dose-related decrease in syncytia formation in excess of 50% compared to HIVenv 2-8 co-cultures alone. Calculation of median effective doses was estimated by visual observation and by quantification of syncitia in 10X power microscope fields. Another procedure which provides data similar to the Bioassay procedure just described allows for quantification of changes in the co-culture cells through an ELISA method, not as reliant on visual observation. […]

The subject of data set [2] is Cyclin B. Description: Inhibition of cyclin B overexpression, western blot densitometry. In kind it is cell-based. Conditions: TCDD, 10 nM; mean ± standard error, n=5 or 6; 2-8 co-culture 61.88, 2-2 co-culture 10.14. As to the method:
(§1) The expression of the protein kinase c-Mos was induced in addition to alterations in cell cycle (CDK1, cyclin B) and apoptotic (Bcl-2 and Bax) protein concentrations and phosphorylation status. CDK1 became hyperphosphorylated whereas cyclin B, Bcl-2, and Bax expression were elevated. Assay for these biochemical changes was performed by western blot analysis using equal amounts of cell lysate proteins derived from cells cultured with the respective Ah receptor ligands. Responses were quantified by scanning densitometry.
(§2) Data from Table 2 represents the mean ± standard error of scanning densitometric units (n=5 or 6 individual scans from separate experiments).Doses used were as follows: TCDD, 10 nM; Substituted Furans (6-nitro 1,3,8-trichlorodibenzofuran; 6-isopropyl, 1,3,8-trichlorodibenzofuran; 6-methyl, 1,3,8-trichlorodibenzofuran; 1-bromo, 6-methyl, 3,8-dichlorodibenzofuran), 2 μM. All four alkyl substituted furan compounds that were tested yielded approximately equivalent responses so their responses were combined.

The subject of another data set is CDK1. Description: Inhibition of CDK1 hyperphosphorylation, western blot densitometry. The format is cell-based. Conditions: TCDD, 10 nM; mean ± standard error, n=5 or 6; 2-8 co-culture 44.27, 2-2 co-culture 10.41. The method, then: as §1, §2
Data set [3] concerns Cyclin B. Description: Inhibition of cyclin B overexpression (cyclin B ELISA; FIGS. 2 and 3). Conditions: FIG. 2 / FIG. 3. The format is cell-based. As to the method: Cyclin B ELISA procedure: The overexpression Cyclin B has become associated with HIVenv 2-8 cytopathicity. This biochemical response and it's inhibition by Ah receptor ligands has been assayed by ELISA. Following 24 hours of co-culture in 96 well microtiter tissue culture plates, the cells are washed 1X with PBS buffer and then lysed with 50 μL lysis buffer (50 mM Tris, […], 10% glycerol, 1% NP-40) with shaking at 4° C. for 30 minutes. Thirty microliters of the cell lysate were then transferred into Immulon 4™ ELISA strip plates and 70 μL of coating buffer (0.2M Borate pH 10.5) added to bring the final microtiter well volume to 100 μL The plates were then incubated at 37° C. for 1 hour to allow for coating. The plates are then washed 3X with 300 μl TBST (20 mM Tris, 150 mM NaCl, 0.05% Tween 20, pH 7.5), incubated with 125 μL of blocking solution for 5 minutes, washed 3X, incubated with horseradish peroxidase labeled anti-mouse IgG for 1 hour at room temperature, washed 3X, and then incubated with 100 μL TMB substrate for 30 minutes at room temperature. Stop solution (2.5M sulfuric acid, 100 μL) was then added to prevent further color development and the plate was read at an optical density of 450 nm.
Data Reduction for this ELISA: HIVenv 2-2 co-culture ELISA values are used as the background for HIVenv 2-8 co-culture values. […]
For orientation: In an ELISA, binding on a coated surface is turned into a signal by an enzyme label.

The target of data set [4] is T1, Ah receptor (Cavia porcellus, UniProt Q6J287).
T1 sequence (Q6J287 1-846): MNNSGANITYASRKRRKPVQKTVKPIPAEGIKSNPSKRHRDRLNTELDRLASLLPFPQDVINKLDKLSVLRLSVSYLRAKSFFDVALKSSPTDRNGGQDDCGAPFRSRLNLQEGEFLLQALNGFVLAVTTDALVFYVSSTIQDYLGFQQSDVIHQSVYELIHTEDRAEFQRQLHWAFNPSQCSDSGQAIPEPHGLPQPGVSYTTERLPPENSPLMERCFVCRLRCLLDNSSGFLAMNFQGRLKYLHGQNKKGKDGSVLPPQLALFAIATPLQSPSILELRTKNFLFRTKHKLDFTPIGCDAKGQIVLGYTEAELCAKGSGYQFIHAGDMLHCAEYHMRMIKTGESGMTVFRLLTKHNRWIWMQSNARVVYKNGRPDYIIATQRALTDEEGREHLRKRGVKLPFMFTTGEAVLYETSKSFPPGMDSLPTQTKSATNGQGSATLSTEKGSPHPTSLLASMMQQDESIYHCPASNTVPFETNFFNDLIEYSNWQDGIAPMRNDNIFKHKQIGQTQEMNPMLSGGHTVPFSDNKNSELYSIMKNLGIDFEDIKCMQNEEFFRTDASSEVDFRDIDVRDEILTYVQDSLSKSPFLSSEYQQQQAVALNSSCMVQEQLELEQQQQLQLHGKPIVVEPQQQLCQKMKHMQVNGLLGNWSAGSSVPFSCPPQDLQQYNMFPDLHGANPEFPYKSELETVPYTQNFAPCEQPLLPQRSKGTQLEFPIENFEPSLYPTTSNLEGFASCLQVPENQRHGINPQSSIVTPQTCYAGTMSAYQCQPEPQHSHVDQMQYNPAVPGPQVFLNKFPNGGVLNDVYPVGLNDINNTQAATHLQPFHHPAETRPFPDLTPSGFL
Description: Ah receptor transformation, agonist test (Ah-immunoassay, absence of TCDD). The format is biochemical, Guinea pig. As to the method:
Cytosol was prepared as described above.
Diluent for TCDD dose response, diluent for extracts (detection of agonists), and negative control: The cytosol is treated with 1 μL DMSO per 1 mL cytosol (-).
1 nM TCDD treated, positive control. […] DMSO diluent for detection of agonists: the cytosol is treated with μL DMSO per 1 mL cytosol. (1 nm final concentration of TCDD).

For data set [5] the following is noted: high dosages over a prolonged period; cited from earlier work.
Data set [6] concerns transformed, cancerous cells. The note with it: cited from earlier work.
In data set [7] the target is T1, Ah receptor. Description: Inhibition of Ah receptor transformation, antagonist test (Ah-immunoassay, 0.5 nM TCDD).
Description: Cytosol was prepared as described in methods and treated with TCDD, DMSO or TCM extract to make 1) 0.5 nM TCDD, 2) 0.1% DMSO, or 3) 500 μg/mL TCM extract, respectively. The treated cytosol was serially diluted in a neutravidin-coated ELISA plate (Pierce, Rockford, Ill.). […] To treat for Ah receptor agonist activity, extracts were diluted in 0.5 nM TCDD treated cytosol to 250, 125, and 62.5 μg/mL of TCM extracts.
Ten mL aliquots of cytosol were thawed and pooled, generally 20 mL per ELISA plate. For each 20 mL of cytosol, 10 μL of thawed DRE stock and 1 mL HEDG in 4M NaCl were added.
0.5 nM TCDD Diluent for extracts (detection of antagonists): The cytosol is treated with 1 μl of 1 μM TCDD per 2 mL cytosol (0.5 nm).
500 μg/mL extracts (detection of antagonists): 1 μL of test extract (500 mg/mL in DMSO) in 1 mL 0.5 nM TCDD-treated cytosol (500 μg/mL final concentration of extract in cytosol).
Serial dilution's of the extracts and/or TCDD treated cytosol into DMSO-treated cytosol are done as required by the experiment and are described in the examples.
The ELISA plate containing the treated cytosol is incubated with gentle rocking for 2 hours at 30° C. to allow the transformation of Ah receptor, binding of Ah receptor with ARNT, and binding of the Ah receptor/ARNT complex to the biotinylated DRE, and binding of the biotinylated DRE to the neutravidin bound to the ELISA plate.
After 2 hours the plate is washed 3 times with 400 μL TBS plus 0.02% Tween 20 per well per wash and 200 μL of the working dilution of anti-ARNT added to all wells. The plate is again incubated with gentle rocking at 30° C. for 1 hour. After 1 hour the plate is washed as before and a working dilution (1:4000) of anti-rabbit/alkaline phosphatase conjugate is added to all wells. The plate is incubated for a further 1 hour at 30° C. with gentle rocking and then washed as before. PNPP stock is added to each well (200 μL) and the plate is incubated for 1 hour at 30° C., at which time it is read at 405 nm in an ELISA plate reader and the milli O.D.'s of the wells are recorded.
TCM extracts were tested for their ability to inhibit the transformation of the Ah receptor.
Data set [8] deals with Ah receptor. Conditions: literature; cited from earlier work.

SMILES strings stand for the structures. pEC50, pIC50: −log10 of the molar value. “Also recorded” adds a separate entry of the source.

The values below come from patent publication US5833994A, “Use of the AH receptor and AH receptor ligands to treat or prevent cytopathicity of viral infection” (Paracelsian, Inc., priority 1997, dated 1998).

As for `Clc1cc2c(cc1Cl)Oc1cc(Cl)c(Cl)cc1O2` [2,3,7,8-TCDD, 2,3,7,8-Tetrachlorodibenzo-p-dioxin], in [1], the “inhibition of syncytia formation / cytopathicity” value is “most effective compound and strongest Ah receptor agonist”; the “Estimated IC50 (Syncitia Quantification), inhibition of HIV-induced cytopathicity” value is 0.002 µM. Further, the “Cyclin B (inhibition of cyclin B overexpression)” value with Cyclin B [2] was 9.32 ± 2.7 scanning densitometric units. Moreover, in the data set on CDK1, the “CDK1 Phosphorylation” value is recorded as 11.13 ± 3.3 scanning densitometric units. Also, the “inhibition of cyclin B overexpression (figure legend)” value in the data set on Cyclin B [3] is “inhibition of cyclin B overexpression”. Moreover, on Ah receptor [4], the pEC50 was 9.30. The “Milli O.D. of TCDD control” value on Ah receptor [4] (Table 12 footnote, .5 nM TCDD, BG subtracted, read at 450 nm) is 850 Milli O.D.

In the case of `COC1C=CC=C(C)C(=O)NC2=CC(=O)C=C(C2=O)C(OC)C(C)CC(OC)C(OC)C(C)C=C(C)C1OC(N)=O` (centres unmarked) [Herbimycin A, herbimycin A], in [1], the “inhibition of syncytia formation / cytopathicity” value is recorded as “block the HIVenv 2-8 induced cytopathic effect” and the “Estimated IC50 (Syncitia Quantification), inhibition of HIV-induced cytopathicity” value was 0.75 µM. In data set [1] (Table 1, positive control), the “Estimated IC50 (Syncitia Quantification), inhibition of HIV-induced cytopathicity, second value in brackets” value was “.43 µM”. In the data set with Cyclin B [3], the “inhibition of cyclin B overexpression (figure legend)” value is reported as “inhibition of cyclin B overexpression”.

`O=c1c(O)c(-c2ccc(O)c(O)c2)oc2cc(O)cc(O)c12` [Quercetin]: in data set [5], the “genotoxicity / carcinogenic activity” value was “genotoxic compound, that may initiate carcinogenic activity in certain tissues”. Moreover, the “anti-proliferative effect” value in data set [6] is listed as “anti-proliferative effect on those transformed, cancerous cells”. At Ah receptor [7], the pIC50 is around 5.00. Also, the “inhibition of Ah receptor transformation / antagonist activity (words)” value is reported as “does present antagonistic activity towards the Ah receptor” on Ah receptor [7] (0.5 nM TCDD) and “antagonistic activity towards the Ah receptor at all doses tried” against Ah receptor [7] (0.5 nM TCDD, listed as quercetin). Further, the “Quercetin interaction with the Ah receptor, Milli O.D. Reading” value on Ah receptor [7] (Table 12, 2.5 μg/mL) is 480 Milli O.D; on Ah receptor [7] (Table 12, 5 μg/mL) it was 320 Milli O.D; at Ah receptor [7] (Table 12, 10 μg/mL), 260 Milli O.D; at Ah receptor [7] (Table 12, 20 μg/mL), 210 Milli O.D.

Take `O=c1cc(-c2ccccc2)oc2c1ccc1ccccc12` [α-naphthoflavone]: in data set [1], the “inhibition of syncytia formation / cytopathicity” value was “correspondingly weaker activity; also recorded: also effective at inhibiting syncytia formation” and the “Estimated IC50 (Syncitia Quantification), inhibition of HIV-induced cytopathicity” value is 0.35 µM. Also, the “ability to transform the Ah receptor / agonist activity” value at Ah receptor [4] (absence of TCDD) is “very weak agonist of the Ah receptor; also recorded: did not reach the EC50 of TCDD”. Besides, the “known Ah receptor agonism/antagonism” value in the data set on Ah receptor [8] was “known partial agonist and antagonist of the Ah receptor; also recorded: described to act as an Ah receptor antagonist by inhibiting TCDD-induced Ah receptor transformation to a DNA binding form”. Also, at Ah receptor [7] (0.5 nM TCDD), the “IC50, inhibition of Ah receptor transformation (estimated)” value was 18.6 µM and the “inhibition of Ah receptor transformation / antagonist activity (words)” value is “more potent antagonist of the Ah receptor”.

Broadly, the pEC50 is the EC50 on a negative log10 scale, so that one unit is a factor of ten. Low values mean a high EC50, high ones a low EC50. One may read the pIC50 as the negative decadic logarithm of the IC50, by convention in mol/L. Read a low pIC50 as a large IC50.
